19 molecules from ChEMBL document CHEMBL4627303, “Design, synthesis and evaluation of flurbiprofen-clioquinol hybrids as multitarget-directed ligands against Alzheimer's disease” (Bioorg Med Chem, 2020) can be followed below.

The structures appear in SMILES notation.

Data set [1] can be described thus: Antioxidant activity assessed as AAPH-induced radical scavenging activity by measuring trolox equivalents for oxygen radical absorbance capacity measured every minute for 90 mins by ORAC-FL assay. In kind it is functional.
Data set [2] concerns the target T1, Amine oxidase [flavin-containing] A (Homo sapiens, UniProt P21397).
T1 sequence (P21397 whole entry): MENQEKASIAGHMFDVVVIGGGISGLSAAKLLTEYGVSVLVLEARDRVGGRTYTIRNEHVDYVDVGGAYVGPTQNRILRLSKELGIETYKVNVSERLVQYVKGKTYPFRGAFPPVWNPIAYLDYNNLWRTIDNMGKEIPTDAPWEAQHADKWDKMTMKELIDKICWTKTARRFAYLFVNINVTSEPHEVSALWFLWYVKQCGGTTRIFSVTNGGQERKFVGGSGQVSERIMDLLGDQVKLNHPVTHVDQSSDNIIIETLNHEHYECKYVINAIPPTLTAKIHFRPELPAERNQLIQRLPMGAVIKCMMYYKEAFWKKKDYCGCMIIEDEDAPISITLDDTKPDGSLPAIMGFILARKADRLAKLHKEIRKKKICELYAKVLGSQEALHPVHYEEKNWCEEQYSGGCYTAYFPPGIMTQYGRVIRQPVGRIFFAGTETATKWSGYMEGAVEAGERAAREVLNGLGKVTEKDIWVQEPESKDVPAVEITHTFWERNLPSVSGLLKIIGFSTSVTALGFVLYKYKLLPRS
In words: Inhibition of recombinant human MAOA expressed in baculovirus infected in BTI cells at 10 uM using kynuramine as substrate after 30 mins by fluorescence based assay relative to control. The following applies: 0.5 h.

For data set [3], the target named is T2, Amine oxidase [flavin-containing] B (Homo sapiens, UniProt P27338).
T2 sequence (P27338 whole entry): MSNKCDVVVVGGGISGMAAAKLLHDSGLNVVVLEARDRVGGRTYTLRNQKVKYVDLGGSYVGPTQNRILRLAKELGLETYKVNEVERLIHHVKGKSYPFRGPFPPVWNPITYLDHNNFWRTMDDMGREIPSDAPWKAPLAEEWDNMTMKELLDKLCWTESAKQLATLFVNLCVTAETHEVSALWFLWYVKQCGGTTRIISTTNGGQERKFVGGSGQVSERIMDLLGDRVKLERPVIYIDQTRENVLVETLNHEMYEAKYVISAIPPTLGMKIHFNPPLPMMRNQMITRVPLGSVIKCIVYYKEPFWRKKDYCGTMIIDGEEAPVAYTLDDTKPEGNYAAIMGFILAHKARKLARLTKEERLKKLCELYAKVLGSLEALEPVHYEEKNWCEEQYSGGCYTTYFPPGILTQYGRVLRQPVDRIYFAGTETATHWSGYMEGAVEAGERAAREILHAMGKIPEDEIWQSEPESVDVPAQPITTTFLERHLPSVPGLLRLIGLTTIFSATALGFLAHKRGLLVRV
Put plainly: Inhibition of recombinant human MAOB expressed in baculovirus infected in BTI cells at 10 uM using kynuramine as substrate after 30 mins by fluorescence based assay relative to control. To be noted: 0.5 h.

Data set [4] deals with Amyloid-beta precursor protein (Homo sapiens) (UniProt P05067). In words: Inhibition of HFIP-pretreated amyloid beta (1 to 42) (unknown origin) self-aggregation at 25 uM after 24 hrs by thioflavin-T fluorescence assay relative to control.
Data set [5] has the same target. Put plainly: Inhibition of Cu2+-induced HFIP-pretreated amyloid beta (1 to 42) (unknown origin) aggregation at 25 uM measured after 24 hrs by thioflavin-T fluorescence assay relative to control.
For data set [6] the target is unchanged. In words: Disaggregation of self-induced amyloid beta (1 to 42) (unknown origin) preformed fibrils at 25 uM measured after 24 hrs by thioflavin-T fluorescence assay relative to control.
Data set [7] deals with T2, Amine oxidase [flavin-containing] B. In words: Inhibition of recombinant human MAOB expressed in baculovirus infected in BTI cells using kynuramine as substrate after 30 mins by fluorescence based assay. Format: cell-based.
In data set [8] the test system is BV-2. In words: Cytotoxicity against mouse BV2 cells assessed as reduction in cell viability at 0.5 to 10 uM measured after 30 mins by MTT assay. Format: cell-based. To be noted: bv-2, 0.5 h. (In general: Formazan colour is commonly taken as a measure of viable cells.)
Data set [9] deals with BV-2. In words: Cytotoxicity against LPS-induced mouse BV2 cells assessed as reduction in cell viability at 0.5 to 10 uM preincubated for 30 mins followed by LPS stimulation and measured after 24 hrs by MTT assay. To be noted: bv-2, 24 h. Format: cell-based.
In data set [10] the test system is BV-2. Put plainly: Anti-neuroinflammatory activity in mouse BV2 cells assessed as inhibition of LPS-induced NO production at 2.5 uM preincubated for 30 mins followed by LPS stimulation measured after 24 hrs by Griess reagent based assay relative to control. Format: functional. (Griess reagent forms a coloured azo dye with nitrite.)
Data set [11] relates to BV-2. In words: Anti-neuroinflammatory activity in mouse BV2 cells assessed as inhibition of LPS-induced NO production at 10 uM preincubated for 30 mins followed by LPS stimulation measured after 24 hrs by Griess reagent based assay relative to control. In kind it is functional.
Data set [12] deals with BV-2. In words: Effect on nitric oxide production in mouse BV2 cells at 0.5 to 10 uM measured after 30 mins by Griess reagent based […]. In kind it is ADME, cell-based. To be noted: bv-2, 0.5 h.
Data set [13] has as its system BV-2. Put plainly: Anti-neuroinflammatory activity in mouse BV2 cells assessed as inhibition of LPS-induced TNFalpha production at 2.5 uM preincubated for 30 mins followed by LPS stimulation measured after 24 hrs by ELISA relative to control. Format: functional. On the technique in general: In an ELISA, binding on a coated surface is turned into a signal by an enzyme label.

The test system of data set [14] is BV-2. In words: Anti-neuroinflammatory activity in mouse BV2 cells assessed as inhibition of LPS-induced TNFalpha production at 10 uM preincubated for 30 mins followed by LPS stimulation measured after 24 hrs by ELISA relative to control. In kind it is functional.

Sequence of Amyloid-beta precursor protein (Homo sapiens) (P05067 whole entry): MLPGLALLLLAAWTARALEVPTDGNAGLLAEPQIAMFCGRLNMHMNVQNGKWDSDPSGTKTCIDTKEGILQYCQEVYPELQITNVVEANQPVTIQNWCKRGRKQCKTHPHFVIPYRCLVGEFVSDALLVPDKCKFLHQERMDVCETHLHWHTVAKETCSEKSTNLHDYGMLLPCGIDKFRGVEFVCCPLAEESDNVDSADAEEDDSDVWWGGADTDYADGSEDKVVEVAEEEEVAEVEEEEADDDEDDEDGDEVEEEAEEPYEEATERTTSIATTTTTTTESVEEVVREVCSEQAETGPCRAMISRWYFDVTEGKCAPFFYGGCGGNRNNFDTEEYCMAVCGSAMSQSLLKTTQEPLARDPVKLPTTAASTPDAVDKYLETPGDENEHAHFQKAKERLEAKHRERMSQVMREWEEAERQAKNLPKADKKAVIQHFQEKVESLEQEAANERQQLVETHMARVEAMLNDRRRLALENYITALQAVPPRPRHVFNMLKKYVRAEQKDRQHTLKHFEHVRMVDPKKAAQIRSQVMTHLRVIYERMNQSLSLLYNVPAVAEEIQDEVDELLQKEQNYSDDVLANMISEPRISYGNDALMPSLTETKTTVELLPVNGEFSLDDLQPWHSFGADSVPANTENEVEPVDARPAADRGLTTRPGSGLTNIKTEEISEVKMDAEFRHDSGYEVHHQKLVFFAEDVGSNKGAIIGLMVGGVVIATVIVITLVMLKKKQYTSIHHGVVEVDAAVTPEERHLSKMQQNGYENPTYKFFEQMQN

As usually defined, the inhibition is the share of the control response that was lost under treatment. On to `COC(=O)C(C)c1ccc(-c2ccc(NCc3ccc(OC)cc3O)cc2)c(F)c1` (stereo not given), for which the Activity in data set [1] amounted to 1.96 µMequiv/µM; in data set [6] it was 25.6%. Further, the inhibition at 10 µM was 11.2% in [2] and 22.9% in data set [3]. Further, the inhibition was determined as 32.8% in data set [4] and 30.6% in [5].

`COC(=O)C(C)c1ccc(-c2ccc(NCc3cc(CN(C)C)cc(OC)c3O)cc2)c(F)c1` (stereo not given): the Activity in [1] came out at 2.07 µMequiv/µM; in data set [6], 49.3%. Moreover, the inhibition at 10 µM worked out at 17.8% in data set [2] and 36% in data set [3]. In addition, the inhibition in data set [4] was determined as 58.2%; in data set [5] it was 38.3%.

For `COc1cc(/C=C/C(=O)CC(=O)/C=C/c2ccc(O)c(OC)c2)ccc1O`, the inhibition in [4] and in data set [5] was 32.5% in each case.

As for `COC(=O)C(C)c1ccc(-c2ccc(NCc3cc(C)ccc3O)cc2)c(F)c1` (stereo not given), the Activity in data set [1] was determined as 1.56 µMequiv/µM; in [6] it was 42.6%. Further, the inhibition at 10 µM in [2] stood at 21.9%; in data set [3], 11.4%. Besides, the inhibition in [4] is 58.5%; in [5], 49.7%.

In the case of `COC(=O)C(C)c1ccc(-c2ccc(NCc3cccc(CN(C)C)c3O)cc2)c(F)c1` (stereo not given), the Activity turned out to be 2.18 µMequiv/µM in data set [1] and 45.1% in [6]. Besides, the inhibition at 10 µM was 19.9% in [2] and less than 5% in data set [3]. Also, the values for the inhibition in data set [4] and in data set [5] were 68.6% and 41.9%, respectively.

For the molecule `COC(=O)C(C)c1ccc(-c2ccc(NCc3cc(Br)cc(Br)c3O)cc2)c(F)c1` (stereo not given), the Activity in data set [1] is 1.42 µMequiv/µM; in [6], 35.9%. The inhibition at 10 µM in data set [2] worked out at 17.9%; in data set [3] it was 16.4%. In addition, the inhibition in [4] is 57.9%; in data set [5] it was 38.3%.

One may read the IC50 as the concentration needed to halve the response being measured. As to `COC(=O)C(C)c1ccc(-c2ccc(NCc3cc(NC(C)=O)ccc3O)cc2)c(F)c1` (stereo not given), the Activity was found to be 1.65 µMequiv/µM in data set [1] and 27.1% in data set [6]. The values for the inhibition at 10 µM in data set [2] and in [3] were 18.7% and 46.2%, respectively. Moreover, the concentration for half-maximal inhibition (IC50) in [7] was determined as 16.3 µM. The inhibition was found to be 39.2% in data set [4] and 24% in [5].

Consider `COC(=O)C(C)c1ccc(-c2ccc(NCc3ccccc3O)cc2)c(F)c1` (stereo not given), for which the Activity in data set [1] came to 1.51 µMequiv/µM; in data set [6], 44.1%. Also, the inhibition at 10 µM in [2] was 15.9%; in data set [3], less than 5%. Further, the inhibition in [4] amounted to 24.7%; in data set [5] it was 42.9%.

Take `COC(=O)C(C)c1ccc(-c2ccc(NCc3cc(Br)ccc3O)cc2)c(F)c1` (stereo not given): the Activity stood at 1.37 µMequiv/µM in data set [1] and 36.6% in data set [6]. Further, the inhibition at 10 µM is 29.3% in data set [2] and 28.4% in data set [3]. Also, the results for the inhibition in [4] and in data set [5] were 37% and 32%, respectively.

As for `COC(=O)C(C)c1ccc(-c2ccc(NCc3cc(Cl)ccc3O)cc2)c(F)c1` (stereo not given), the Activity turned out to be 1.32 µMequiv/µM in [1] and 41.9% in data set [6]. Also, the values for the inhibition at 10 µM in [2] and in data set [3] were 30.6% and less than 5%, respectively. Also, the inhibition in data set [4] is 48.3%; in data set [5] it was 41.9%.

`CC(C(=O)O)c1ccc(-c2ccccc2)c(F)c1` (stereo not given) [FLURBIPROFEN]: the Activity is 0.17 µMequiv/µM in [1]; 9.28% in [6]; “Non-Toxic” in the data set with BV-2 [8]; “Non-Toxic” with BV-2 [9]; “Non-Toxic” in the data set with BV-2 [12]. Further, the inhibition in data set [5] is 7.29%. Moreover, the inhibition at 2.5 µM in the data set on BV-2 [10] was determined as 12.5%; in the data set on BV-2 [13], 10.2%. Further, the inhibition at 10 µM in the data set on BV-2 [11] worked out at 26.2%; in the data set with BV-2 [14], 31.2%.

`COC(=O)C(C)c1ccc(-c2ccc(NCc3ccccn3)cc2)c(F)c1` (stereo not given): the Activity in data set [1] is 1.15 µMequiv/µM; in data set [6], 35.5%. Moreover, the inhibition at 10 µM in data set [2] is 36.8%; in data set [3], 45.8%. Also, the IC50 in data set [7] was 16.6 µM. Further, the inhibition in [4] came to 48.3%; in [5], 37.8%.

With `Oc1c(I)cc(Cl)c2cccnc12`, the Activity came to 0.54 µMequiv/µM in data set [1] and 51.1% in data set [6]. Further, the inhibition in data set [4] stood at 62.4%; in [5], 40.1%.

With `COC(=O)C(C)c1ccc(-c2ccc(NCc3cccc(OC)c3O)cc2)c(F)c1` (stereo not given), the results for the Activity in [1] and in data set [6] were 1.68 µMequiv/µM and 41.7%, respectively. The results for the inhibition at 10 µM in data set [2] and in data set [3] were 10.5% and 11.7%, respectively. The inhibition in data set [4] was found to be 46.2%; in data set [5], 39.9%.

In the case of `COC(=O)C(C)c1ccc(-c2ccc(NCc3cc(CN(C)C)ccc3O)cc2)c(F)c1` (stereo not given), the figures for the Activity in data set [1] and in data set [6] were 1.92 µMequiv/µM and 51.2%, respectively. The results for the inhibition at 10 µM in data set [2] and in data set [3] were 22.4% and 32.8%, respectively. The values for the inhibition in data set [4] and in data set [5] were 43% and 43.7%, respectively.

Regarding `COC(=O)C(C)c1ccc(-c2ccc(NCc3nc(C)c(C)nc3C)cc2)c(F)c1` (stereo not given), the Activity in data set [1] is 1.69 µMequiv/µM; in [6], 18.3%. For the same molecule, the inhibition at 10 µM in data set [2] is 20.4%; in [3], 42.5%. In addition, the half-maximal inhibitory concentration (IC50) in data set [7] was found to be 15.1 µM. In addition, the inhibition came to 27.5% in data set [4] and 22.5% in data set [5].

As for `COC(=O)C(C)c1ccc(-c2ccc(NCc3cc(OC)ccc3O)cc2)c(F)c1` (stereo not given), the values for the Activity in data set [1] and in [6] were 2.05 µMequiv/µM and 53.3%, respectively. Moreover, the inhibition at 10 µM in [2] turned out to be 28.4%; in data set [3], 33.4%. Besides, the results for the inhibition in data set [4] and in [5] were 73.6% and 43.6%, respectively.

`COC(=O)C(C)c1ccc(-c2ccc(NCc3cccc(CN4CCCCC4)c3O)cc2)c(F)c1` (stereo not given): the Activity came to 2.02 µMequiv/µM in [1] and 43.3% in data set [6]. Besides, the inhibition at 10 µM in [2] and in [3] was less than 5% throughout. Also, the inhibition in data set [4] was found to be 48.8%; in data set [5] it was 42.4%.

With `COC(=O)C(C)c1ccc(-c2ccc(NCc3cc(CN4CCCCC4)ccc3O)cc2)c(F)c1` (stereo not given), the Activity is 2.14 µMequiv/µM in data set [1] and 30.2% in data set [6]. Besides, the inhibition at 10 µM in [2] was found to be 18.2%; in [3] it was 25.8%. Further, the inhibition in [4] and in data set [5] was 29.4% throughout.
